The source of these data is patent publication EP0434173A2, “Use of NMDA receptor antagonists for treatment of chronic neurodegenerative diseases” (SCHERING AKTIENGESELLSCHAFT, priority 1989, dated 1991).

The assay has as its system Dopaminneurone der SNC. The experiment in a line: Prevention of MPP^+-induced degeneration of dopamine neurons after local co-injection into the substantia nigra pars compacta; count of intact neurons in cresyl violet stained brain sections. The assay is classed as in vivo, Ratten. The note with it: for Anzahl intakter Neurone (Mittelwert ± S.E.M.): right SNC. The text has this: Zum Nachweis der protectiven Wirkung der erfindungsgemäßen Verbindungen wurde der toxische Metabolit MPP^+ lokal in die Substantia nigra von Ratten injiziert und somit eine rasch fortschreitende Degeneration der Dopaminneuronen bewirkt.

In the case of `NC(CCCCCP(=O)(O)O)C(=O)O` (stereo not drawn) [AP-7, 2-Amino-7-phosphonoheptansäure], the “Anzahl intakter Neurone (Mittelwert ± S.E.M.)” value runs as follows: (AP-7 0.025 µmol co-injected with MPP^+ (0.025 µmol pro Seite), 4 h after injection, n=3) 26 ± 2; (AP-7 0.1 µmol co-injected with MPP^+ (0.025 µmol pro Seite), 4 h after injection, n=4) 91 ± 24 x; (AP-7 0.25 µmol co-injected with MPP^+ (0.025 µmol pro Seite), 4 h after injection, n=9) 128 ± 10 xxx; (AP-7 0.25 µmol co-injected with MPP^+ (0.025 µmol pro Seite), 8 h after injection, n=4) 79 ± 9 xx; (AP-7 0.25 µmol co-injected with MPP^+ (0.025 µmol pro Seite), 24 h after injection, n=4) 66 ± 16 x. Also, the “neurodegenerativer Effekt von MPP^+ auf die Dopaminneuronen” value (simultaneous local administration with MPP^+ into the substantia nigra of rats, result in words) is “nahezu vollständig auf”.
